PubChem BioAssay AID1956 (SRMLSC, 2009)
The source made the active and inactive calls. Rule as the data show it: active = maximum fold increase above about 1.5; inconclusive = no clear call, values can overlap the other calls; inactive = below that; tested in PC3 cells.

Test system: HSV replication augmentation in cells, fold increase
Assay: enhancers of HSV replication in host cells, fold increase, host cell viability (AID 1956)

SMILES | EC50
N#C/C(=C\Nc1ccc2cn[nH]c2c1)c1nc(-c2ccc(Cl)cc2)cs1 | 24.4 µM (inactive)
CCN(CC)c1ccc(/C=N/Nc2nc(C)cc(C)n2)cc1 | 23.2 µM (inactive)
O=c1cc(N2CCCCC2)c(-c2ccccc2)nn1Cc1c(Cl)cccc1Cl | > 25 µM (inactive)
CCOC(=O)C1=C(N)Oc2c(oc(CO)cc2=O)C1c1ccc(Cl)cc1 (centres undefined) | > 25 µM (inactive)
N#CC1=C2N=C(N)c3ccccc3N2C2=C(C(=O)CCC2)C1c1ccc(Cl)cc1 (centres undefined) | > 25 µM (inactive)
CCCCn1ccnc1C(=O)c1cccc(S(=O)(=O)N2CC(C)CC(C)C2)c1 (centres undefined) | > 25 µM (inactive)
CN(CC1CCOCC1)C(=O)CC1C(=O)NCCN1CC1CCCCC1 (centres undefined) | > 25 µM (inactive)
CCOC(=O)c1c(NC(=O)c2cc3n(n2)C(C(F)(F)F)CC(c2cccs2)N3)sc(C)c1C (centres undefined) | 16.6 µM (inactive)
CC(C)(C)c1ccc(Cn2c(=N)n(CC(O)c3ccco3)c3ccccc32)cc1 (centres undefined) | 11.4 µM (inactive)
O=C(O)/C(=C\c1ccc(Br)cc1)c1ccc(S(=O)(=O)N2CCCCC2)s1 | > 25 µM (inactive)
O=C(O)c1ccc(/C=N/Nc2ncc(C(F)(F)F)cc2Cl)cc1 | > 25 µM (inactive)
O=C(Nc1ccccc1C(=O)Nc1ccccc1C(=O)NCc1ccco1)c1ccco1 | > 25 µM (inactive)
Cc1cccc2nc3c(nc12)-c1ccccc1C3=O | > 25 µM (inactive)
COc1cccc(C(=O)N2CCN(CCCc3ccccc3)CC2)c1OC | > 25 µM (inactive)
O=C(O)/C=C/C(=O)Nc1ccc(-n2ccc(C(F)(F)F)n2)cc1 | > 25 µM (inactive)
CS(=O)(=O)N1CC2CCCN2c2cc(C(F)(F)F)ccc21 (centres undefined) | > 25 µM (inactive)
Cc1ccc(Cn2c(=N)n(CC(O)c3ccco3)c3ccccc32)cc1 (centres undefined) | > 25 µM (inactive)
CC1(C)CC(=O)C(C=Nc2ccc(C(=O)c3ccccc3)cc2N=CC2=C(O)CC(C)(C)CC2=O)=C(O)C1 | > 25 µM (inactive)
COc1ccc(S(=O)(=O)/N=C2/NC(=O)/C(=C\c3ccco3)S2)cc1 | > 25 µM (inactive)
Cn1cc(Br)c(NC(=O)/C=C/C(=O)O)n1 | > 25 µM (inactive)
N#C/C(=C\c1ccccc1[N+](=O)[O-])C(=O)NC1CCCCC1 | > 25 µM (inactive)
CCc1ccc2[nH]c(=O)c(CN(Cc3ccccc3OC)Cc3nnnn3Cc3ccco3)cc2c1 | > 25 µM (inactive)
CC1=CC(C)(C)Nc2ccc(OC(=O)CN3C(=O)C4CCCCC4C3=O)cc21 (centres undefined) | > 25 µM (inactive)

SMILES | EC50
Cc1ccc(-c2nc(NC(=O)CSc3nnc4scc(-c5ccccc5)n34)ns2)cc1 | > 25 µM (inactive)
CC(C)(C)c1cc(-c2n[nH]c(=S)n2-c2ccccc2F)n[nH]1 | > 25 µM (inactive)
CN1C(=O)C(C2c3ccccc3C(=O)N2Cc2ccc([N+](=O)[O-])cc2)C(=O)N(C)C1=O (centres undefined) | > 25 µM (inactive)
COCc1ccc(C(=O)N2CCCC(C(=O)c3cc(F)ccc3F)C2)s1 (centres undefined) | > 25 µM (inactive)
Nc1ccccc1Nc1cc(-c2ccccc2)[nH]n1 | 10.9 µM (inactive)
O=C1CCCC2=C1C(c1ccc(Cl)cc1)n1c(s/c(=C\c3ccc4ccncc4c3)c1=O)=N2 (centres undefined) | > 25 µM (inactive)
CCN(CC)c1ccc(CC2C(=O)N(C)C(=O)N(C)C2=O)cc1 | > 25 µM (inactive)
NNc1nc(-c2ccccc2Cl)nc2sc3c(c12)CCCC3 | > 25 µM (inactive)
O=C1NC(c2ccccc2)=N/C1=C/c1ccco1 | > 25 µM (inactive)
Cc1nc2ccccc2c2oc(C(=O)N3CCc4ccccc4C3)cc12 | > 25 µM (inactive)
CC(C)N(C(=O)N1CCC(c2nc(-c3ccncc3)no2)CC1)C(C)C | > 25 µM (inactive)
COC(=O)c1c(C)[nH]c(O)c1C=Nc1ccc(C(C)C)cc1 | > 25 µM (inactive)
Cc1ccc(C(=O)NNC2=Nc3cccc4cccc2c34)cc1 | > 25 µM (inactive)
CC(C)(C)c1ccc(Oc2ccc(N)cn2)cc1 | > 25 µM (inactive)
CCCN1C(=O)C2(C(C(=O)c3ccc(C)o3)=C(O)C(=O)N2CCCOC)c2ccccc21 (centres undefined) | > 25 µM (inactive)
CCc1ccc(NC(=O)COc2ccc(/C=C(/C#N)c3nc4ccccc4[nH]3)cc2OC)cc1 | 24 µM (inactive)
O=C(CC1NCCNC1=O)NC1Cc2ccccc2C1 (centres undefined) | > 25 µM (inactive)
COc1ccc(CCc2nnc(CCC(=O)N(C)Cc3ccnc4ccccc34)o2)cc1 | 13.1 µM (inactive)
CCOCCCNC(=S)N1CCCN(c2nc3cc(C)c(C)cc3cc2C#N)CC1 | > 25 µM (inactive)
Oc1ccc(N=Nc2cccc(C(F)(F)F)c2)cc1C=Nc1ccc(N2CCOCC2)cc1 | 18.8 µM (inactive)
Cc1ccccc1C(=O)NNc1ccc([N+](=O)[O-])cc1 | > 25 µM (inactive)
CCn1c(/C=C/N(C)c2ccccc2)[n+](CC)c2ccc(Cl)cc21 | 10.2 µM (inactive)
CC(=O)Nc1ccc(S(=O)(=O)Nc2cc(-c3ccccc3)nn2C)cc1 | > 25 µM (inactive)

SMILES | EC50
COc1cccc(C2C=C(c3ccc(OC)cc3OC)Nc3nnnn32)c1 (centres undefined) | > 25 µM (inactive)
Cc1ccc(-c2nc(CSCC(=O)N3CCN(c4ccccn4)CC3)c(C)o2)cc1 | 15.7 µM (inactive)
CN1C(=O)CC(c2ccco2)Sc2ccccc21 (centres undefined) | > 25 µM (inactive)
COC(=O)C1=C(O)C(C(=O)OC)C(c2ccc(C)cc2)C(C#N)(C#N)C1c1ccc(C)cc1 (centres undefined) | > 25 µM (inactive)
CCOC(=O)c1c(NC(=O)C2COc3ccccc3O2)sc2c1CCN(Cc1ccccc1)C2 (centres undefined) | > 25 µM (inactive)
CCOCCCNC(=O)CN1C(=O)C(CC)Oc2ccccc21 (centres undefined) | > 25 µM (inactive)
CNC(=S)NNC(=O)c1ccc(=O)n(Cc2ccc(Cl)cc2Cl)c1 | > 25 µM (inactive)
COc1ccccc1OP(=O)(Nc1cccnc1)Oc1ccccc1OC | > 25 µM (inactive)
C=CCN1C(=O)[C@]2(c3ccccc31)C1CCCC=C1C(C#N)=C(N)C2(C#N)C#N (some centres undefined) | > 25 µM (inactive)
CC(=O)c1cccc(NC(=O)/C=C/c2ccc([N+](=O)[O-])s2)c1 | 19 µM (inactive)
CCOC(=O)c1cnc(COc2ccc(OC)cc2)[nH]c1=O | > 25 µM (inactive)
COc1ccc(OC2C(=O)N(Cc3ccc4c(c3)OCO4)C2c2sccc2C)cc1 (centres undefined) | > 25 µM (inactive)
COc1ccc(C2C(C#N)=C(N)N(c3sc4c(c3C#N)CCCC4)C3=C2C(=O)CC(C)(C)C3)cc1 (centres undefined) | > 25 µM (inactive)
Cc1ccc(Oc2nnc(-c3ccccc3)c3ccccc23)cc1 | > 25 µM (inactive)
COc1cccc(N2CCN(Cc3nc4scc(-c5ccccc5)c4c(=O)[nH]3)CC2)c1 | 21.9 µM (inactive)
CCOC(=O)COc1ccc(S(=O)(=O)Nc2ccc(C)cc2)cc1 | > 25 µM (inactive)
Cn1c(C(=O)Nc2ccc3c(c2)OCCO3)cc2c(=O)n(C)c3ccccc3c21 | > 25 µM (inactive)
CC(C)Oc1ncnc2c1[nH]c1ccccc12 | 3.18 µM (inactive)
O=S(=O)(Nc1ccc(Cc2ccncc2)cc1)c1ccc(Cl)c(Cl)c1 | > 25 µM (inactive)
Cc1cccc(N=C2NC(=O)/C(=C/C=C/c3ccco3)S2)c1 | > 25 µM (inactive)
CCN1C(=O)/C(=C/C=C2\C=CN(CC)c3ccccc32)SC1=S | > 25 µM (inactive)
Nc1cccnc1Sc1cc(Cl)c(Cl)cc1Cl | > 25 µM (inactive)
Cc1cccc(CSc2nnc(-c3cnccn3)n2C)c1 | > 25 µM (inactive)

SMILES | EC50
COc1ccccc1NC(=O)c1ccc(Br)o1 | > 25 µM (inactive)
CSc1nc(Cl)c(Cc2ccc(OC(C)C)cc2)c(N(C)C)n1 | > 25 µM (inactive)
Cc1ccc(-n2nc3c(c2NC(=O)c2ccc(OC(C)C)cc2)CS(=O)C3)cc1 (centres undefined) | > 25 µM (inactive)
CC(C(=O)c1c[nH]c2ccccc12)N1CCc2ccccc2C1 (centres undefined) | > 25 µM (inactive)
CC(C)CC(N=C1NC(C)(C)Cc2ccccc21)C(=O)O (centres undefined) | > 25 µM (inactive)
O=C1CC(/C=C/c2ccccn2)=Nc2ccccc2N1 | 22.8 µM (inactive)
CC1(C(O)(C#CCN2CCCCC2)c2ccccc2)CCCC1 (centres undefined) | > 25 µM (inactive)
NC(=S)Nc1cc(Cl)cc(Cl)c1 | > 25 µM (inactive)
OC(CNCc1ccccc1)c1ccccc1 (centres undefined) | > 25 µM (inactive)
Cc1cc(=O)[nH]c(SCC(=O)/C=C2\N(C)c3ccccc3C2(C)C)n1 | > 25 µM (inactive)
O=C1NC(=O)N(Cc2ccco2)C(=O)/C1=C\c1cccn1CCOc1ccc(Cl)cc1 | > 25 µM (inactive)
O=C(C1=NN[C@@H]2C(=O)N(c3cccc(F)c3)C(=O)[C@H]12)c1cnccn1 | > 25 µM (inactive)
O=C(Nc1nc(-c2ccccn2)cs1)c1cccc(-n2cnnn2)c1 | > 25 µM (inactive)
NS(=O)(=O)c1ccc(NC(=O)COC(=O)c2c3c(nc4ccccc24)/C(=C\c2ccc4c(c2)OCO4)CCC3)cc1 | > 25 µM (inactive)
Cc1ccc(Cn2ccc(-c3cnc(-c4ccccc4)s3)n2)cc1 | > 25 µM (inactive)
Nc1c(Cl)ncnc1N/N=C/c1ccc2ccccc2n1 | 4.3 µM (inactive)
C[N+]1=C(/C=C/Nc2ccccc2Cl)C(C)(C)c2ccccc21 | > 25 µM (inactive)
O=C(c1cc(COc2ccc3ncccc3c2)on1)N1CCC(O)CC1 | > 25 µM (inactive)
Cc1ccc(S(=O)(=O)N(C(=O)c2ccncc2)c2ccc(OC(=O)c3ccncc3)c3ccccc23)cc1 | 18.3 µM (inactive)
C=CCNC(=S)Nc1ccc2nc(C)oc2c1 | > 25 µM (inactive)
